From patent US6838436B1, “Inhibitors of proteasomal activity for stimulating bone growth” (Osteoscreen Inc., priority 1998, dated 2005) come the findings set out here.

In one experiment the test system is mouse BMP2 promoter. The experiment can be described thus: High throughput screen (ABA assay): BMP2 promoter-luciferase reporter in 2T3-BMP-2-LUC osteoblast cells. Format: cell-based. The following applies: for activity in the high through-put assay compared with simvastatin: Example 6; for EC50: read-out: Luciferase Activity (ED50-μM). The text has this: 1995, the entire contents of which are incorporated herein by reference. This assay is also described as a portion of a study of immortalized murine osteoblasts (derived from a mouse expressing a transgene composed of a BMP2 promoter driving expression of T-antigen) in Ghosh-Choudhery, N., et al., Endocrinology (1996) 137:331-39. In this study, the immortalized cells were stably transfected with a plasmid containing a luciferase reporter gene driven by a mouse BMP2 promoter (−2736/114 bp), and responded in a dose-dependent manner to recombinant human BMP2.
Briefly, the assay utilizes cells transformed permanently or transiently with constructs in which the promoter of a bone morphogenetic protein, specifically BMP2 or BMP4, is coupled to a reporter gene, typically luciferase. These transformed cells are then evaluated for the production of the reporter gene product; compounds that activate the BMP promoter will drive production of the reporter protein, which can be readily assayed. Many thousands of compounds have been subjected to this rapid screening technique, and only a very small percentage are able to elicit a level of expression of reporter gene 5-fold greater than that produced by vehicle. […] The active compounds (“BMP promoter-active compounds” or “active compounds”) are useful in promoting bone or cartilage growth, and thus in the treatment of vertebrates in need of bone or cartilage growth.
Thousands of compounds have been tested in the assay system set forth in U.S. Ser. No. 08/458,434, filed 2 Jun. 1995, and incorporated herein by reference. […] In this screen, the standard positive control was the compound 59-0008 (also denoted “OS8”), which is of the formula: [drawing 22]
In more detail, the 2T3-BMP-2-LUC cells, a stably transformed osteoblast cell line described in Ghosh-Choudhury et al. Endocrinology (1996) 137:331-39, referenced above, was employed. The cells were cultured using α-MEM, 10% FCS with 1% penicillin/streptomycin and 1% glutamine (“plating medium”), and were split 1:5 once per week. For the assay, the cells were resuspended in a plating medium containing 4% FCS, plated in microtiter plates at a concentration of 5×10^3 cells (in 50 μl)/well, and incubated for 24 hours at 37° C. in 5% CO2. To initiate the assay, 50 μl of the test compound or the control in DMSO was added at 2× concentration to each well, so that the final volume was 100 μl. The final serum concentration was 2% FCS, and the final DMSO concentration was 1%. Compound 59-0008 (10 μM) was used as a positive control.
The treated cells were incubated for 24 hours at 37° C. and 5% CO2. The medium was then removed, and the cells were rinsed three times with PBS. After removal of excess PBS, 25 μl of 1× cell culture lysing reagent (Promega #E153A) was added to each well and incubated for at least ten minutes. Optionally, the plates/samples could be frozen at this point. To each well was added 50 μl of luciferase substrate (Promega #E152A; 10 ml Promega luciferase assay buffer per 7 mg Promega luciferase assay substrate). Luminescence was measured on an automated 96-well luminometer, and was expressed as either picograms of luciferase activity per well or as picograms of luciferase activity per microgram of protein.
Accordingly, other tested compounds can be evaluated at various concentrations, and the results compared to the results obtained for 59-0008 at 10 μM (which value would be normalized to 100). Alternatively, the reactivity of a compound to be tested can be compared directly to a negative control containing no compound.

The next experiment deals with hair follicles. The experiment can be described thus: Hair follicle number after injection over the calvaria (Example 8). Format: in vivo, Swiss ICR mice. The following applies: for number of hair follicles: administered in the same way. An excerpt:
The assay described above to assess the effect of compounds on calvarial bone growth can also be used to assess the ability of compounds to stimulate hair growth. The test compound or appropriate control vehicle is applied to the upper and lower back of male ICR Swiss white mice either topically or by subcutaneous injection. The vehicle is selected as appropriate for the compound to be tested and for the route of administration. Optionally, the hair in the test area may be removed prior to administration. After a suitable interval, typically 7 days, the mice are anesthetized and a biopsy of the dorsal treatment area is taken using a 6 mm dermal punch. The specimens are fixed in 10% buffered formalin and imbedded in paraffin wax, and sectioned and stained to observe hair follicles. In addition, photography can be used to observe and record hair growth; typically such growth is observed after 14-18 days. After a suitable interval, typically 21 days, the animals may be euthanized and the hair analyzed for fiber analysis and the tissue from the treatment area analyzed for quantitation of hair follicles.
In more detail, male ICR Swiss white mice, aged 4-6 weeks and weighing 13-26 gm, are employed, using 4-5 mice per group. The calvarial bone growth assay is performed as described above. Briefly, the test compound or appropriate control vehicle is injected into the subcutaneous tissue over the right calvaria of normal mice. Typically, the control vehicle is the vehicle in which the compound was solubilized, and is PBS containing 5% DMSO or is PBS containing Tween (2 μl/10 ml). The animals are sacrificed on day 14 and bone growth measured by histomorphometry. Bone samples for quantitation are cleaned from adjacent tissues and fixed in 10% buffered formalin for 24-48 hours, decalcified in 14% EDTA for 1-3 weeks, processed through graded alcohols; and embedded in paraffin wax. Three to five […] sections of the calvaria are prepared, and representative sections are selected for histomorphometric assessment of the effects on bone formation and bone resorption. Sections are measured by using a camera lucida attachment to trace directly the microscopic image onto a digitizing plate. Bone changes are measured on sections cut 200 μm apart, over 4 adjacent 1×1 mm fields on both the injected and noninjected sides of the calvaria. New bone is identified by its characteristic woven structure, and osteoclasts and osteoblasts are identified by their distinctive morphology. Histomorphometry software (OsteoMeasure, Osteometrix, Inc., Atlanta) is used to process digitizer input to determine cell counts and measure areas or perimeters.
The in vivo bone calvarial growth assay of Example 3 was modified to observe the number of hair follicles in treated mice. […]

Where two headings read alike, the source gives them in different places. Where a SMILES comes first, the peptide text is derived from it. [ ]: non-standard residue; d: D form. The star is where a group is joined. Nva = CCC[C@H](N)C(=O)O; Cbz = O=C(OCc1ccccc1)*; OtBu = CC(C)(C)O*

In the case of `CC[C@H](C)[C@H](NC(=O)[C@H]([C@@H](C)CC)N(C)C(C)=O)C(=O)N[C@H](C(=O)N[C@@H](CC(C)C)C(=O)[C@@]1(C)CO1)[C@@H](C)O` [Epoxomicin], the “activity in the high through-put assay compared with simvastatin” value in the experiment on mouse BMP2 promoter is reported as “more active than simvastatin”. Moreover, the Luciferase activity/well is recorded as 0.07 in the experiment with mouse BMP2 promoter (dose 0.000625 μM); 0.07 in the experiment with mouse BMP2 promoter (dose 0.00125 μM); 0.08 with mouse BMP2 promoter (dose 0.0025 μM); 0.10 in the experiment on mouse BMP2 promoter (dose 0.005 μM); 0.14 with mouse BMP2 promoter (dose 0.01 μM); 0.17 with mouse BMP2 promoter (dose 0.02 μM). In addition, the figures for the Luciferase activity/well in the experiment with mouse BMP2 promoter (dose 0.04 μM) and in the experiment on mouse BMP2 promoter (dose 0.08 μM) were 0.20 and 0.21, respectively.

Consider `CC(=O)N[C@@H](CSC(=O)[C@]1([C@@H](O)C(C)C)NC(=O)[C@H](C)[C@@H]1O)C(=O)O` [Lactacystin, lactacystin], for which the “number of hair follicles” value in the experiment with hair follicles (dose not given) is given as “stimulated an increase in the number of hair follicles”. In the experiment with mouse BMP2 promoter, the “response in the high throughput luciferase screen” value (“response” for short) is given as “Positive responses”. In addition, the EC50 with mouse BMP2 promoter (Mus musculus, Osteoblast) came out at 1 µM.

On to `CCC[C@@H](C=O)NC(=O)[C@H](CC(C)C)NC(=O)[C@H](CC(C)C)NC(=O)OCc1ccccc1` [MG-115, N-carbobenzoyl-Leu-Leu-Nva-CHO] (Cbz-Leu-Leu-[Nva]-aldehyde), for which, in the experiment on hair follicles (10 mg/kg), the “number of hair follicles” value is “stimulated an increase in the number of hair follicles”. For the same molecule, the “response” value in the experiment with mouse BMP2 promoter is “high activity”. In addition, in the experiment with mouse BMP2 promoter (Mus musculus, Osteoblast), the EC50 is 2 µM.

As to `CC(C)C[C@@H](C=O)NC(=O)[C@@H](CC(C)C)NC(=O)[C@H](CC(C)C)NC(=O)OCc1ccccc1` [MG-132, N-carbobenzoyl-Leu-Leu-Leu-CHO] (Cbz-Leu-[dL]-Leu-aldehyde), the “number of hair follicles” value in the experiment with hair follicles (10 mg/kg) is listed as “stimulated an increase in the number of hair follicles”. Also, in the experiment with mouse BMP2 promoter, the “response” value is recorded as “high activity”. The EC50 with mouse BMP2 promoter (Mus musculus, Osteoblast) was 0.25 µM.

`CC[C@H](C)[C@H](NC(=O)OCc1ccccc1)C(=O)N[C@@H](CCC(=O)OC(C)(C)C)C(=O)N[C@@H](C)C(=O)N[C@H](C=O)CC(C)C` [PSI, N-carbobenzoyl-Ile-Glu-(OtBu)-Ala-Leu-CHO] (Cbz-IE(OtBu)AL-aldehyde): in the experiment on hair follicles (5mg/kg/day injected three times a day for 5 days over the calvaria, sacrificed sixteen days later), the “number of hair follicles versus control mice” value is recorded as “strikingly large increase in the number of hair follicles”. Further, in the experiment on mouse BMP2 promoter, the “activity in the high through-put assay compared with simvastatin” value is given as “more active than simvastatin”. In addition, the EC50 in the experiment with mouse BMP2 promoter (Mus musculus, Osteoblast) is 0.05 µM. Besides, the Luciferase activity/well in the experiment on mouse BMP2 promoter (dose 0.000625 μM) turned out to be 0.07; with mouse BMP2 promoter (dose 0.00125 μM), 0.08; in the experiment on mouse BMP2 promoter (dose 0.0025 μM), 0.07; with mouse BMP2 promoter (dose 0.005 μM) it was 0.08; in the experiment on mouse BMP2 promoter (dose 0.01 μM) it was 0.08; in the experiment on mouse BMP2 promoter (dose 0.02 μM), 0.09. The Luciferase activity/well in the experiment with mouse BMP2 promoter (dose 0.04 μM) is reported as 0.12; in the experiment on mouse BMP2 promoter (dose 0.08 μM), 0.18.

In the case of simvastatin, the “response” value with mouse BMP2 promoter is listed as “good response”. Further, the Luciferase activity/well is 0.07 with mouse BMP2 promoter (dose 0.000625 μM); 0.07 in the experiment on mouse BMP2 promoter (dose 0.00125 μM); 0.065 in the experiment with mouse BMP2 promoter (dose 0.0025 μM); 0.07 with mouse BMP2 promoter (dose 0.005 μM); 0.07 in the experiment on mouse BMP2 promoter (dose 0.01 μM); 0.07 in the experiment with mouse BMP2 promoter (dose 0.02 μM). Moreover, the Luciferase activity/well in the experiment on mouse BMP2 promoter (dose 0.04 μM) is 0.07; in the experiment with mouse BMP2 promoter (dose 0.08 μM), 0.07; with mouse BMP2 promoter (dose 0.16 μM), 0.07; in the experiment on mouse BMP2 promoter (dose 0.32 μM), 0.07; in the experiment with mouse BMP2 promoter (dose 0.625 μM), 0.09; in the experiment on mouse BMP2 promoter (dose 1.25 μM), 0.11. Further, the Luciferase activity/well in the experiment with mouse BMP2 promoter (dose 2.5 μM) is recorded as 0.14; in the experiment on mouse BMP2 promoter (dose 5 μM) it was 0.15; in the experiment on mouse BMP2 promoter (dose 10 μM), 0.15. In addition, the EC50 in the experiment on mouse BMP2 promoter is 0.2 µM.
